Experimental data published in article PMC12649549, “Sequence Permutation Generated Lysine and Tryptophan-Rich Antimicrobial Peptides with Enhanced Therapeutic Index” (Antibiotics, 2025).
Read-outs that look alike come from different tables or passages of the source.

Legend:
[1] = system: Both Gram-positive and -negative bacteria; experiment: Geometric mean MIC, therapeutic index and fold changes of MIC, whole panel of strains; type: cell-based; conditions: for GM G−/+ (geometric mean of the MIC values): Both Gram-positive and -negative bacteria, MIC >50 µg/mL counted as 100 µg/mL; for Therapeutic Index (TI) G−/+: HC10/GM, both Gram-positive and -negative bacteria
Procedure, shortened: (§1)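 Overnight MH cultures were regrown and diluted to 5 × 10^5 CFU/mL, then exposed to peptides at 0.78–50 µg/mL final in MH or modified LYM broth following CLSI microdilution. MICs were combined into geometric means, and TI was computed as HC10 (human red blood cells) divided by GM.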

[2] = system: Gram-negative bacteria; experiment: Geometric mean MIC and therapeutic index, Gram-negative bacteria; type: cell-based; conditions: Gram-negative bacteria; for GM G− (geometric mean of the MIC values): MH broth, MIC >50 µg/mL counted as 100 µg/mL; for Therapeutic Index (TI) G−: HC10/GM
Procedure, shortened: as §1

[3] = system: A. baumannii 14B0097 (Acinetobacter sp., BCRC number 14B0097)
Procedure, shortened: (§2)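 MICs came from CLSI broth microdilution, with 5 × 10^5 CFU/mL bacteria exposed to peptide at final 0.78–50 µg/mL. Media were MH broth or LYM broth (pH 7.4), the latter also adjusted for salt (NaCl 50–300 mM, MgCl2 0.5–2.5 mM) or acidity (pH 4.5–6.5); triplicate independent experiments.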

[4] = system: S. aureus ATCC 6538
Procedure, shortened: as §2

[5] = system: S. aureus ATCC 25923
Procedure, shortened: as §2

[6] = system: Pseudomonas aeruginosa Migula (ATCC 27853)
Procedure, shortened: as §2

[7] = system: A. baumannii 14B0091 (Acinetobacter sp., BCRC number 14B0091)
Procedure, shortened: as §2

[8] = system: Escherichia coli (ATCC 25922)
Procedure, shortened: as §2

[9] = LYM broth, 0 mM NaCl, 16 h, 37 °C
[10] = LYM broth, 50 mM NaCl, 16 h, 37 °C
[11] = LYM broth, 100 mM NaCl, 16 h, 37 °C
[12] = LYM broth, 200 mM (NaCl), 16 h, 37 °C
[13] = LYM broth, 300 mM (NaCl), 16 h, 37 °C
[14] = MH broth, 5 × 10^5 CFU/mL, 16 h, 37 °C, repeated three times

Ac-KWRKWLKWLAKKK-NH2 [Peptide W5K01]
2–4 fold: folds higher MIC values than W5KA9W ([1]; MH broth, in most bacteria strains)
3.13 µg/mL: MIC ([3]; LYM broth, 1.5 mM MgCl2) | MIC ([3]; LYM broth, 2.5 mM MgCl2) | MIC [3, 11] | MIC [3, 12] | MIC ([3]; LYM broth, pH 4.5) | MIC ([3]; LYM broth, pH 5.5) | MIC [4, 9] | MIC ([4]; LYM broth, 2.5 mM MgCl2) | MIC ([4]; LYM broth, pH 4.5) | MIC [5, 9] | MIC ([5]; LYM broth, 0.5 mM MgCl2) | MIC ([5]; LYM broth, pH 4.5) | MIC ([5]; LYM broth, pH 5.5) | MIC [6, 9] | MIC ([6]; LYM broth, 0.5 mM MgCl2) | MIC ([6]; LYM broth, pH 4.5) | MIC ([6]; LYM broth, pH 5.5) | MIC ([7]; LYM broth, 2.5 mM MgCl2) | MIC [7, 10] | MIC [7, 11] | MIC [7, 12] | MIC [8, 9] | MIC ([8]; LYM broth, pH 4.5) | MIC ([8]; LYM broth, pH 5.5) | MIC ([8]; LYM broth, pH 6.5)
>50 µg/mL: MIC [5, 13] | MIC [6, 12] | MIC [6, 13] | MIC [8, 12] | MIC [8, 13]
8.6: Therapeutic Index (TI) G− [2]
15.4 µg/mL: GM G−/+ (geometric mean of the MIC values) ([1]; MH broth)
4 fold: weakening of bactericidal efficacy (MIC) ([1]; LYM broth, 2.5 mM MgCl2)
4.6: Therapeutic Index (TI) G−/+ [1]
50 µg/mL: MIC [5, 12]
6.25 µg/mL: MIC [3, 14] | MIC [4, 10] | MIC ([5]; LYM broth, 1.5 mM MgCl2) | MIC ([5]; LYM broth, 2.5 mM MgCl2) | MIC [5, 10] | MIC ([6]; LYM broth, 1.5 mM MgCl2) | MIC [6, 10] | MIC [7, 14] | MIC ([8]; LYM broth, 0.5 mM MgCl2) | MIC ([8]; LYM broth, 1.5 mM MgCl2) | MIC [8, 10]
1.56 µg/mL: MIC [3, 9] | MIC ([3]; LYM broth, 0.5 mM MgCl2) | MIC [3, 10] | MIC ([3]; LYM broth, pH 6.5) | MIC ([4]; LYM broth, 0.5 mM MgCl2) | MIC ([4]; LYM broth, 1.5 mM MgCl2) | MIC ([4]; LYM broth, pH 5.5) | MIC ([4]; LYM broth, pH 6.5) | MIC ([5]; LYM broth, pH 6.5) | MIC ([6]; LYM broth, pH 6.5) | MIC [7, 9] | MIC ([7]; LYM broth, 0.5 mM MgCl2) | MIC ([7]; LYM broth, 1.5 mM MgCl2) | MIC ([7]; LYM broth, pH 4.5) | MIC ([7]; LYM broth, pH 5.5) | MIC ([7]; LYM broth, pH 6.5)
12.5 µg/mL: MIC [3, 13] | MIC [4, 11] | MIC [4, 12] | MIC [4, 14] | MIC [5, 11] | MIC [5, 14] | MIC ([6]; LYM broth, 2.5 mM MgCl2) | MIC [6, 11] | MIC [6, 14] | MIC [7, 13] | MIC ([8]; LYM broth, 2.5 mM MgCl2) | MIC [8, 14]
8.2 µg/mL: GM G− (geometric mean of the MIC values) [2]
25 µg/mL: MIC [4, 13] | MIC [8, 11]

Ac-LAKKKKWRKWLKW-NH2 [Peptide W5K09]
3.3: Therapeutic Index (TI) G− [2]
50 µg/mL: MIC [3, 12] | MIC [4, 13] | MIC [5, 12] | MIC [6, 12] | MIC [7, 12] | MIC [7, 14] | MIC [8, 12]
2.2: Therapeutic Index (TI) G−/+ [1]
33.0 µg/mL: GM G− (geometric mean of the MIC values) [2]
50.0 µg/mL: GM G−/+ (geometric mean of the MIC values) ([1]; MH broth)
6.25 µg/mL: MIC ([3]; LYM broth, pH 4.5) | MIC [4, 9] | MIC [4, 10] | MIC ([4]; LYM broth, pH 4.5) | MIC ([5]; LYM broth, 1.5 mM MgCl2) | MIC ([5]; LYM broth, 2.5 mM MgCl2) | MIC [5, 10] | MIC ([5]; LYM broth, pH 4.5) | MIC ([6]; LYM broth, 0.5 mM MgCl2) | MIC ([6]; LYM broth, 1.5 mM MgCl2) | MIC [6, 10] | MIC ([6]; LYM broth, pH 4.5) | MIC [7, 10] | MIC ([7]; LYM broth, pH 4.5) | MIC [8, 9] | MIC ([8]; LYM broth, 0.5 mM MgCl2) | MIC ([8]; LYM broth, pH 4.5)
1.56 µg/mL: MIC ([3]; LYM broth, pH 6.5) | MIC ([5]; LYM broth, pH 6.5) | MIC [7, 9] | MIC ([7]; LYM broth, pH 6.5)
>50 µg/mL: MIC [3, 13] | MIC [4, 14] | MIC [5, 13] | MIC [6, 13] | MIC [7, 13] | MIC [8, 13]
25 µg/mL: MIC [3, 14] | MIC [5, 14] | MIC [6, 14] | MIC [8, 11] | MIC [8, 14]
3.13 µg/mL: MIC [3, 9] | MIC ([3]; LYM broth, 0.5 mM MgCl2) | MIC ([3]; LYM broth, 1.5 mM MgCl2) | MIC ([3]; LYM broth, 2.5 mM MgCl2) | MIC [3, 10] | MIC ([3]; LYM broth, pH 5.5) | MIC ([4]; LYM broth, 0.5 mM MgCl2) | MIC ([4]; LYM broth, 1.5 mM MgCl2) | MIC ([4]; LYM broth, 2.5 mM MgCl2) | MIC ([4]; LYM broth, pH 5.5) | MIC ([4]; LYM broth, pH 6.5) | MIC [5, 9] | MIC ([5]; LYM broth, 0.5 mM MgCl2) | MIC ([5]; LYM broth, pH 5.5) | MIC [6, 9] | MIC ([6]; LYM broth, pH 5.5) | MIC ([6]; LYM broth, pH 6.5) | MIC ([7]; LYM broth, 0.5 mM MgCl2) | MIC ([7]; LYM broth, 1.5 mM MgCl2) | MIC ([7]; LYM broth, 2.5 mM MgCl2) | MIC ([7]; LYM broth, pH 5.5) | MIC ([8]; LYM broth, pH 5.5) | MIC ([8]; LYM broth, pH 6.5)
12.5 µg/mL: MIC [3, 11] | MIC [4, 11] | MIC [4, 12] | MIC [5, 11] | MIC ([6]; LYM broth, 2.5 mM MgCl2) | MIC [6, 11] | MIC [7, 11] | MIC ([8]; LYM broth, 1.5 mM MgCl2) | MIC ([8]; LYM broth, 2.5 mM MgCl2) | MIC [8, 10]
